Data reported in patent US12234499B2, “Compositions, methods, systems and/or kits for detecting antimicrobial resistance in bacteria” (priority 2016, dated 2025).
Where two headings read alike, the source gives them in different places.

Experiments:
Test in all cases: Carbapenem MIC of study isolate
Type in all cases: cell-based
P. aeruginosa G15557 = conditions: VIM-like
K. pneumoniae 0109 = conditions: Klebsiella pneumoniae, CTX-M-15, TEM-1, SHV-1
S. marcescens G153 = conditions: Serratia marcescens, KPC
E. coli G1693 = conditions: Escherichia coli, High AmpC, S12like (Table 2), High AmpC (Table 4.2)
E. cloacae 0032 = conditions: Enterobacter cloacae, KPC-3, TEM-1
E. cloacae G1735 = conditions: Enterobacter cloacae
E. coli 0137 = conditions: Escherichia coli, NDM-6
K. pneumoniae G158 = conditions: Klebsiella pneumoniae, KPC-8
K. pneumoniae 0043 = conditions: Klebsiella pneumoniae, SHV-12, OmpK36
K. pneumoniae 0113 = conditions: Klebsiella pneumoniae, KPC-3
E. coli 0119 = conditions: Escherichia coli, NDM
K. pneumoniae 0042 = conditions: Klebsiella pneumoniae, CTX-M-28, OmpK35, OmpK36
K. oxytoca G1640 = conditions: Klebsiella oxytoca, KPC
E. aerogenes G1648 = conditions: Klebsiella aerogenes, High AmpC
A. baumannii 0052 = conditions: Acinetobacter baumannii, OXA-58
K. pneumoniae G1511 = test system: K. pneumoniae G1511
P. mirabilis 0155 = conditions: Proteus mirabilis, KPC
K. pneumoniae 0079 = conditions: Klebsiella pneumoniae, CTX-M-14, OmpK35 (Table 4.2 also DHA-1)
A. baumannii G1734 = conditions: Acinetobacter baumannii, OXA-40
K. pneumoniae G157 = conditions: Klebsiella pneumoniae, KPC-8
K. pneumoniae G1675 = conditions: Klebsiella pneumoniae, KPC-2, SHV-5-like
E. cloacae G1637 = conditions: Enterobacter cloacae, High AmpC
E. coli G164 = conditions: Escherichia coli, High AmpC (Table 2), SHV-12-like (Table 4.2)
C. freundii G1706 = conditions: Citrobacter freundii, KPC
K. pneumoniae 0047 = conditions: Klebsiella pneumoniae, OmpK35
E. aerogenes G1614 = conditions: Klebsiella aerogenes, High AmpC
K. pneumoniae G1758 = conditions: Klebsiella pneumoniae, CLSI MHT negative control
K. ozaenae 0096 = conditions: KPC
P. aeruginosa G15019 = test system: P. aeruginosa G15019
E. cloacae G1693 = conditions: Enterobacter cloacae, IMP-8 (Table 4.1)
E. coli 0058 = conditions: Escherichia coli, ESBL
M. morganii G1751 = conditions: Morganella morganii, High AmpC
K. oxytoca 0147 = conditions: KPC
P. mirabilis G1745 = conditions: Proteus mirabilis, CMY, TEM-1-like
K. pneumoniae G1725 = conditions: Klebsiella pneumoniae, KPC
K. pneumoniae 0044 = conditions: Klebsiella pneumoniae, CTX-M-15, TEM-1, SHV-1
E. coli 0086 = conditions: Escherichia coli, CTX-M-9
P. mirabilis G15185 = test system: P. mirabilis G15185
P. aeruginosa G15 = conditions: Pseudomonas aeruginosa, KPC-5
P. mirabilis 0156 = conditions: Proteus mirabilis, KPC
E. cloacae G1691 = conditions: Enterobacter cloacae; IMP-8-producing E. cloacae G1691
K. pneumoniae G1685 = conditions: Klebsiella pneumoniae, CMY-2-like
[1] = Pseudomonas aeruginosa, read-out: MIC
[2] = Klebsiella pneumoniae, KPC-4, read-out: MIC
[3] = Pseudomonas aeruginosa, VIM-2, read-out: MIC
[4] = Klebsiella oxytoca, read-out: MIC
[5] = Proteus mirabilis, IMP-27, read-out: MIC

In the case of `C[C@@H](O)[C@H]1C(=O)N2C(C(=O)O)=C(S[C@@H]3CN[C@H](C(=O)Nc4cccc(C(=O)O)c4)C3)[C@H](C)[C@H]12` [Ertapenem], the MIC (P. aeruginosa G15557; [1]) is reported as greater than 1 µg/mL, the MIC (P. aeruginosa G15557; listed as ERT) is reported as greater than 1 µg/mL and the MIC (K. pneumoniae 0109) is reported as greater than 1 µg/mL. The MIC (S. marcescens G153) was greater than 1 µg/mL, the MIC (E. coli G1693) was greater than 1 µg/mL and the MIC (E. cloacae 0032) was greater than 1 µg/mL. For the same compound, the MIC (E. cloacae G1735) was greater than 1 µg/mL, the MIC (E. coli 0137) was greater than 1 µg/mL and the MIC (K. pneumoniae G158) was greater than 1 µg/mL. The MIC (K. pneumoniae 0043) was greater than 1 µg/mL, the MIC (K. pneumoniae 0113) was greater than 1 µg/mL and the MIC (E. coli 0119) was greater than 1 µg/mL. The MIC (K. pneumoniae 0042) was greater than 1 µg/mL, the MIC (K. oxytoca G1640) was greater than 1 µg/mL and the MIC (E. aerogenes G1648) was greater than 1 µg/mL. For the same compound, the MIC (A. baumannii 0052) was greater than 1 µg/mL, the MIC (K. pneumoniae G1511; KPC-4, listed as ERT) was greater than 1 µg/mL and the MIC (K. pneumoniae G1511; [2]) was greater than 1 µg/mL. The MIC (P. mirabilis 0155) was greater than 1 µg/mL, the MIC (K. pneumoniae 0079) was greater than 1 µg/mL and the MIC (A. baumannii G1734) was greater than 1 µg/mL. It also gave an MIC (K. pneumoniae G157) greater than 1 µg/mL, an MIC (K. pneumoniae G1675) greater than 1 µg/mL and an MIC (E. cloacae G1637) greater than 1 µg/mL. For the same compound, the MIC (E. coli G164) was greater than 1 µg/mL, the MIC (C. freundii G1706) was 1 µg/mL and the MIC (K. pneumoniae 0047) was greater than 1 µg/mL. For the same compound, the MIC (E. aerogenes G1614) was greater than 1 µg/mL, the MIC (K. pneumoniae G1758) was greater than 1 µg/mL and the MIC (K. ozaenae 0096) was greater than 1 µg/mL. For the same compound, the MIC (P. aeruginosa G15019; [3]) was greater than 1 µg/mL, the MIC (P. aeruginosa G15019; VIM-2, listed as ERT) was greater than 1 µg/mL and the MIC (E. cloacae G1693) was 0.5 µg/mL. The MIC (E. coli 0058) was greater than 1 µg/mL, the MIC (M. morganii G1751) was greater than 1 µg/mL and the MIC (K. oxytoca 0147; listed as ERT) was greater than 1 µg/mL. The MIC (K. oxytoca 0147; [4]) was greater than 1 µg/mL, the MIC (P. mirabilis G1745) was no more than 0.25 µg/mL and the MIC (K. pneumoniae G1725) was greater than 1 µg/mL. For the same compound, the MIC (K. pneumoniae 0044) was greater than 1 µg/mL, the MIC (E. coli 0086) was greater than 1 µg/mL and the MIC (P. mirabilis G15185; IMP-27, listed as ERT) was greater than 1 µg/mL. The MIC (P. mirabilis G15185; [5]) was greater than 1 µg/mL, the MIC (P. aeruginosa G15) was greater than 1 µg/mL and the MIC (P. mirabilis 0156) was 0.5 µg/mL. For the same compound, the MIC (E. cloacae G1691) was greater than 1 µg/mL and the MIC (K. pneumoniae G1685) was greater than 1 µg/mL.

For `C[C@@H](O)[C@H]1C(=O)N2C(C(=O)O)=C(SCCN=CN)C[C@H]12` [Imipenem], the MIC (P. aeruginosa G15557; [1]) was greater than 8 µg/mL, the MIC (P. aeruginosa G15557; listed as IPM) was greater than 8 µg/mL and the MIC (K. pneumoniae 0109) was 4 µg/mL. For the same compound, the MIC (S. marcescens G153) was greater than 8 µg/mL, the MIC (E. coli G1693) was greater than 8 µg/mL and the MIC (E. cloacae 0032) was 4 µg/mL. For the same compound, the MIC (E. cloacae G1735) was greater than 8 µg/mL, the MIC (E. coli 0137) was greater than 8 µg/mL and the MIC (K. pneumoniae G158) was greater than 8 µg/mL. It also gave an MIC (K. pneumoniae 0043) greater than 8 µg/mL, an MIC (K. pneumoniae 0113) greater than 8 µg/mL and an MIC (E. coli 0119) greater than 8 µg/mL. For the same compound, the MIC (K. pneumoniae 0042) was 1 µg/mL, the MIC (K. oxytoca G1640) was greater than 8 µg/mL and the MIC (E. aerogenes G1648) was greater than 8 µg/mL. The MIC (A. baumannii 0052) was greater than 8 µg/mL, the MIC (K. pneumoniae G1511; [2]) was 4 µg/mL and the MIC (P. mirabilis 0155) was greater than 8 µg/mL. The MIC (K. pneumoniae 0079) was greater than 8 µg/mL, the MIC (A. baumannii G1734) was greater than 8 µg/mL and the MIC (K. pneumoniae G157) was greater than 8 µg/mL. For the same compound, the MIC (K. pneumoniae G1675) was greater than 8 µg/mL, the MIC (E. cloacae G1637) was greater than 8 µg/mL and the MIC (E. coli G164) was greater than 8 µg/mL. The MIC (C. freundii G1706) was 2 µg/mL, the MIC (K. pneumoniae 0047) was greater than 8 µg/mL and the MIC (E. aerogenes G1614) was greater than 8 µg/mL. The MIC (K. pneumoniae G1758) was 4 µg/mL, the MIC (K. ozaenae 0096) was greater than 8 µg/mL and the MIC (P. aeruginosa G15019; [3]) was greater than 8 µg/mL. For the same compound, the MIC (P. aeruginosa G15019; VIM-2, listed as IPM) was greater than 8 µg/mL, the MIC (E. cloacae G1693) was 4 µg/mL and the MIC (E. coli 0058) was no more than 0.25 µg/mL. For the same compound, the MIC (M. morganii G1751) was 4 µg/mL, the MIC (K. oxytoca 0147; listed as IPM) was greater than 8 µg/mL and the MIC (K. oxytoca 0147; [4]) was greater than 8 µg/mL. The MIC (P. mirabilis G1745) was 8 µg/mL, the MIC (K. pneumoniae G1725) was greater than 8 µg/mL and the MIC (K. pneumoniae 0044) was greater than 8 µg/mL. The MIC (E. coli 0086) was greater than 8 µg/mL, the MIC (P. mirabilis G15185; [5]) was 8 µg/mL and the MIC (P. aeruginosa G15) was greater than 8 µg/mL. The MIC (P. mirabilis 0156) was 8 µg/mL, the MIC (E. cloacae G1691) was 4 µg/mL and the MIC (K. pneumoniae G1685) was greater than 8 µg/mL.

For `C[C@@H](O)[C@H]1C(=O)N2C(C(=O)O)=C(S[C@@H]3CN[C@H](C(=O)N(C)C)C3)[C@H](C)[C@H]12` [Meropenem], the MIC (P. aeruginosa G15557; [1]) was 4 µg/mL, the MIC (K. pneumoniae 0109) was 8 µg/mL and the MIC (S. marcescens G153) was greater than 8 µg/mL. It also gave an MIC (E. coli G1693) greater than 8 µg/mL, an MIC (E. cloacae 0032) of 2 µg/mL and an MIC (E. cloacae G1735) greater than 8 µg/mL. For the same compound, the MIC (E. coli 0137) was greater than 8 µg/mL, the MIC (K. pneumoniae G158) was greater than 8 µg/mL and the MIC (K. pneumoniae 0043) was greater than 8 µg/mL. For the same compound, the MIC (K. pneumoniae 0113) was greater than 8 µg/mL, the MIC (E. coli 0119) was greater than 8 µg/mL and the MIC (K. pneumoniae 0042) was 4 µg/mL. The MIC (K. oxytoca G1640) was greater than 8 µg/mL, the MIC (E. aerogenes G1648) was greater than 8 µg/mL and the MIC (A. baumannii 0052) was 8 µg/mL. The MIC (K. pneumoniae G1511; [2]) was 2 µg/mL, the MIC (P. mirabilis 0155) was 8 µg/mL and the MIC (K. pneumoniae 0079) was greater than 8 µg/mL. For the same compound, the MIC (A. baumannii G1734) was greater than 8 µg/mL, the MIC (K. pneumoniae G157) was greater than 8 µg/mL and the MIC (K. pneumoniae G1675) was greater than 8 µg/mL. It also gave an MIC (E. cloacae G1637) greater than 8 µg/mL, an MIC (E. coli G164) greater than 8 µg/mL and an MIC (C. freundii G1706) of 0.25 µg/mL. For the same compound, the MIC (K. pneumoniae 0047) was greater than 8 µg/mL, the MIC (E. aerogenes G1614) was greater than 8 µg/mL and the MIC (K. pneumoniae G1758) was 1 µg/mL. It also gave an MIC (K. ozaenae 0096) greater than 8 µg/mL, an MIC (P. aeruginosa G15019; [3]) of 4 µg/mL and an MIC (E. cloacae G1693) of 0.5 µg/mL. It also gave an MIC (E. coli 0058) of 0.5 µg/mL, an MIC (M. morganii G1751) of 4 µg/mL and an MIC (K. oxytoca 0147; listed as MEM) greater than 8 µg/mL. The MIC (K. oxytoca 0147; [4]) was greater than 8 µg/mL, the MIC (P. mirabilis G1745) was no more than 0.125 µg/mL and the MIC (K. pneumoniae G1725) was greater than 8 µg/mL. It also gave an MIC (K. pneumoniae 0044) greater than 8 µg/mL, an MIC (E. coli 0086) greater than 8 µg/mL and an MIC (P. mirabilis G15185; IMP-27, listed as MEM) greater than 8 µg/mL. It also gave an MIC (P. mirabilis G15185; [5]) greater than 8 µg/mL, an MIC (P. aeruginosa G15) greater than 8 µg/mL and an MIC (P. mirabilis 0156) of 0.25 µg/mL. The MIC (E. cloacae G1691) was 0.5 µg/mL and the MIC (K. pneumoniae G1685) was greater than 8 µg/mL.
